Patent US10100083B2, “Leukemia stem cell targeting ligands and methods of use” (The Regents of the University of California, priority 2011, dated 2018)
Positions of bridges follow the written chain, without caps; N, C: chain ends. No end group written: not given here.

How the values were obtained:
CLL1 [1] = assay: Binding of phage displaying the peptide to A549 cells expressing CLL1-RFP (anti-M13 antibody-FITC); conditions: anti-M13 monoclonal antibody-FITC
Procedure: (§1) FIGS. 1A-D illustrate identification of peptides that target CLL1. A. Panning strategy to identify CLL1-targeting peptides. Before each round of panning, the C7C phage peptide display library was subtracted with various cells to remove phage that could bind to those confounding cell types. B. Binding of phage to cells expressing CLL1. A549 cells were transfected with CLL1-RFP (a) or RFP (b, control), incubated with phage expressing the […] (SEQ ID NO: 17)peptide, and probed with anti-M13 phage antibody conjugated with FITC. Binding of phage to A549 cells expressing CLL1-RFP (c), but not to A549 cells expressing RFP (d) was observed. C. Binding of the […] (SEQ ID NO: 17)peptide to CLL1. Biotinylated […] (SEQ ID NO: 17) peptide was synthesized and used to probe PBMC, A549 transfected with vector alone, and A549 cells expressing CLL1. […] Upper panel: cells were probed with streptavidin (SA)-FITC. Lower panels: cells were probed with CLL1-targeting peptide and SA-FITC. D. Binding specificity of the […] (SEQ ID NO: 17)peptide. Cells of various origins were incubated with the biotinylated CLL1-targeting peptide or a bladder cancer-specific peptide, named PLZ4 as a negative control, and probed with SA-PE.
(§2) After panning, a total of 36 phage clones were sequenced. […] Expression of CLL1-RFP or RFP could be visualized by the appearance of red fluorescence. […]
Target sequence in this assay (Q5QGZ9 65-265 limits assumed): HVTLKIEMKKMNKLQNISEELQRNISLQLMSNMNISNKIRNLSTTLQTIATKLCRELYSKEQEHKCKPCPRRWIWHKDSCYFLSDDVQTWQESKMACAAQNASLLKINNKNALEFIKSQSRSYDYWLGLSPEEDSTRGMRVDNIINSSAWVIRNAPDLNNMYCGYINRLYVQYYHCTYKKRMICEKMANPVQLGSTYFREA

[2] = system: A549 cells expressing RFP; assay: Binding of phage displaying the peptide to control A549 cells expressing RFP
Procedure: as §1, §2

CLL1 [3] = assay: Flow cytometry binding of biotinylated peptide to cells expressing CLL1
Procedure: (§3) One peptide, CLL1-L1, with the sequence of […] (SEQ ID NO: 17) was synthesized for further analysis. To determine the binding specificity, cell lines purchased from the American Type Culture Collection (ATCC), such as PC3N (Prostate), HepG2 (Liver), Skov-3 (Ovarian), 5637 (Bladder), HCT-116 (Colon), RPMI8226 (Myeloma), A549 (Lung), K562 (Leukemia), A549 and K562 cells, both expressing CLL1, were incubated with CLL1-L1 conjugated to biotin and probed with streptavidin-phycoerythrin (PE) (excitation 480 nm, emission 578 nm) (FIG. 1D). A bladder cancer-specific ligand, PLZ4, conjugated to biotin was used as the negative control.
After panning, a total of 36 phage clones were sequenced. After alignment, two consensus sequences were identified: CXLR(S/T)AAVC (SEQ ID NO: 34) and CXLRSSGPC (SEQ ID NO: 24) (Table 1), in which “X” represents several amino acids that can be replaceable. Serine (S) and threonine (T) belong to the same hydrophilic class of amino acids with only one methyl group difference. Of these two major sequences, one common motif exists: “LR(S/T)”. To confirm that these ligands indeed bind to CLL1, A549 cells were transfected with a CCL1-RFP expression vector (FIG. 1B panel a) or RFP (FIG. 1B panel b, the control). Expression of CLL1-RFP or RFP could be visualized by the appearance of red fluorescence. For subsequent in depth characterization, we selected the peptide […] […]
Target sequence in this assay (Q5QGZ9 44-265 limits assumed): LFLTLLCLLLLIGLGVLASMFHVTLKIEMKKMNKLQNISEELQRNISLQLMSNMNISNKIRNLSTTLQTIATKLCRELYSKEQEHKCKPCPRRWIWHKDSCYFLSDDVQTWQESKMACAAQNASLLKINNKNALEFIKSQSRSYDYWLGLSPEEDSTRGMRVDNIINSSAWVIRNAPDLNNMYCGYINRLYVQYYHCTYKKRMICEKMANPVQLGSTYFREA

[4] = system: PBMC, parental A549, K562 or other cell lines; assay: Flow cytometry binding of biotinylated peptide to PBMC, parental and other cell lines (binding specificity)
Procedure: as §3
After panning, a total of 36 phage clones were sequenced. After alignment, two consensus sequences were identified: CXLR(S/T)AAVC (SEQ ID NO: 34) and CXLRSSGPC (SEQ ID NO: 24) (Table 1), in which “X” represents several amino acids that can be replaceable. Serine (S) and threonine (T) belong to the same hydrophilic class of amino acids with only one methyl group difference. Of these two major sequences, one common motif exists: “LR(S/T)”. To confirm that these ligands indeed bind to CLL1, A549 cells were transfected with a CCL1-RFP expression vector (FIG. 1B panel a) or RFP (FIG. 1B panel b, the control). Expression of CLL1-RFP or RFP could be visualized by the appearance of red fluorescence. For subsequent in depth characterization, we selected the peptide […] (SEQ ID NO: 17) instead of […] (SEQ ID NO: 23) because aspartic acid (D) is more hydrophilic than proline (P), which makes the peptide more water soluble and easier to synthesize and manipulate. A549 cells expressing CCL1-RFP or RFP alone were incubated with phage displaying the […] (SEQ ID NO: 17) peptide, and probed with anti-M13 monoclonal antibody-FITC conjugate. […] This peptide is named CLL1-L1 and was used for all subsequent experiments. Flow cytometry studies were also performed to determine cell binding. CLL1-L1 was conjugated to biotin through the polyethylene glycol (PEG) linker. Cells were incubated with biotinylated CLL1-L1 and probed with streptavidin-PE. […]

[5] = Balb/c mice, follow-up for up to 10 days
in vivo = conditions: Balb/c, mouse
[6] = streptavidin-PE, flow cytometry (FIG. 1C)

Row | Compound | Phage detected on cell surface (CLL1 [1]) | Phage detected on cell surface [2] | Binding to A549 and K562 cells that expressed recombinant CLL1 (CLL1 [3]; SA-PE (FIG. 1D)) | Binding to A549 cells expressing CLL1 (CLL1 [3]; streptavidin probe, flow cytometry (FIG. 1C)) | Binding to parental A549, K562 or other cell lines ([4]; SA-PE (FIG. 1D)) | Binding to A549 control cells [4, 6] | Binding to PBMC [4, 6] | Weight changes [5] | MTD (in vivo) [mg/kg]
1 | CDLRSAAVC (disulfide 1-9 (inferred)) [CLL1-L1, CLL1-targeting peptide from C7C phage display library, cyclized via the two cysteines] | detected on the surface | not on cells expressing RFP | bound | significant binding | not | No significant binding | No significant binding | – | –
2 | COc1cccc2c1C(=O)c1c(O)c3c(c(O)c1C2=O)C[C@@](O)(C(C)=O)C[C@@H]3O[C@H]1C[C@H](N)[C@H](O)[C@H](C)O1 [free DNR, daunorubicin] | – | – | – | – | – | – | – | no significant weight changes | 10
